Assay results: ChEMBL document CHEMBL2424516, “Facile synthesis of novel quinoline derivatives as anticancer agents” (2013)
The source made the active and inactive calls. The calls are words filed in the database; no cut-off is given here.

Experiments:
[1] = test system: Escherichia coli; test: Induction of Escherichia coli DNA cleavage at 100 ug after 2 hrs by agarose gel electrophoresis
[2] = test system: MCF7; test: Cytotoxicity against human MCF7 cells by SRB assay; assay type: functional; details: for CC50: read-out: LC50 (the source's name)
[3] = test system: HeLa; test: Cytotoxicity against human HeLa cells by SRB assay; assay type: functional

Structure (SMILES) | Activity [1] | GI50 [2] [µM] | TGI [2] [µM] | CC50 [2] [µM] | GI50 [3] [µM] | LC50 (concentration killing 50% of cells) [3] [µM] | TGI [3] [µM]
COc1cccc2cc(C3SC(NC(C)=O)=NN3C(C)=O)c3nnnn3c12 (centres undefined) | Active | > 100 | > 100 | > 100 | > 100 | > 100 | > 100
CC(=O)NC1=NN(C(C)=O)C(c2cc3cc(Br)ccc3n3nnnc23)S1 (centres undefined) | Active | > 100 | > 100 | > 100 | < 0.1 | > 100 | > 100
COc1ccc2cc(C3SC(NC(C)=O)=NN3C(C)=O)c3nnnn3c2c1 (centres undefined) | Active | > 100 | > 100 | > 100 | > 100 | > 100 | > 100
CC(=O)NC1=NN(C(C)=O)C(c2cc3ccccc3n3nnnc23)S1 (centres undefined) | Active | > 100 | > 100 | > 100 | > 100 | > 100 | > 100
CC(=O)NC1=NN(C(C)=O)C(c2cc3cccc(C)c3n3nnnc23)S1 (centres undefined) | Active | 95.3 | > 100 | > 100 | 85.1 | > 100 | > 100
COc1ccc2c(c1)cc(C1SC(NC(C)=O)=NN1C(C)=O)c1nnnn12 (centres undefined) | Active | > 100 | > 100 | > 100 | > 100 | > 100 | > 100
CC(=O)NC1=NN(C(C)=O)C(c2cc3ccc(C)cc3n3nnnc23)S1 (centres undefined) | – | 98.9 | > 100 | > 100 | 83.3 | > 100 | > 100
COc1cc2cc(C3SC(NC(C)=O)=NN3C(C)=O)c3nnnn3c2cc1OC (centres undefined) | Active | > 100 | > 100 | > 100 | > 100 | > 100 | > 100
CC(=O)NC1=NN(C(C)=O)C(c2cc3cc(Cl)ccc3n3nnnc23)S1 (centres undefined) | Active | > 100 | > 100 | > 100 | < 0.1 | > 100 | > 100
CC(=O)NC1=NN(C(C)=O)C(c2cc3cc(C)ccc3n3nnnc23)S1 (centres undefined) | Active | > 100 | > 100 | > 100 | 81.3 | > 100 | > 100
COc1cccc2c1C(=O)c1c(O)c3c(c(O)c1C2=O)C[C@@](O)(C(=O)CO)C[C@@H]3O[C@H]1C[C@H](N)[C@H](O)[C@H](C)O1 [DOXORUBICIN] | – | < 0.1 | > 0.1 | > 100 | < 0.1 | – | > 0.1
